Where “and” joins values, the source holds several entries; their conditions need not be identical. Equal entries are not always repeated.
Experiments:
interstitial collagen = experiment: Assay C: image analysis of interstitial collagen (Picrosirius Red), collagen volume fraction; assay type: in vivo, Male Sprague-Dawley rats; conditions: for ICVF (%): interstitial collagen volume fraction, eplerenone dose 100 mg/kg/day
Description: The procedure of Assay B was expanded upon in a further study. […] Myocardial tissue from animals in each treatment group was examined after 7, 14, or 30 days of treatment. […] Lesions were preceded by the expression and progressive upregulation of proinflammatory molecules. […] Prior to surgery the animals were individually weighed and placed in one of the following groups: […] Potassium chloride supplementation was added to the saline solution in order to prevent the potential hypokalemia associated with aldosterone excess. […] Louis, Mo.) was inserted subcutaneously at the nape of the neck. Aldosterone was administered at a dose of 0.75 µg/hour. […] Animals were sacrificed from each group (n=8-13) after 7, 14, or 30 days of treatment. The equatorial regions of the heart were routinely processed into paraffin with an automated tissue processor (Hypercenter XP, Shandon/Lipshaw Inc., Pittsburgh, Pa.) and embedded into fresh paraffin apical side down (Shandon Embedding Center, Shandon/Lipshaw Inc.). Five and 10 µm sections were cut from each block of tissue using a Leica RM2035 rotary microtome (Leica Inc., Houston, Tex.) and mounted on Superfrost/Plus microscope slides (Fisher Scientific, Pittsburgh, Pa.). Ten […]m sections were stained with the collagen specific stain, Picrosirius Red F3BA (Saturated Picric Acid (Sigma Chemical, St. […] Waterbury, Conn.) (6). Mounted tissues were hydrated with water. […] Slides were coverslipped with #1 cover glass using Permount Histological Mounting Media (Fisher Scientific). Two slides mounted with 5 µm sections were cut for each animal. One slide was processed for H&E staining and one for Periodic Acid Schiff (PAS) staining. The H&E and PAS were used for pathological scoring of the hearts. Picrosirius Red F3BA stained slides were used to quantify interstitial collagen with a Videometric 150 Image Analysis System (Oncor Inc., Gaitherburg, Md.). […] Garden City, N.Y.) attached to a Nikon Optiphot microscope (Nikon Inc.). A Toshiba 3 CCD Color Video Camera (Model#[…] Corp. Japan) relayed the images in RGB format from the microscope to a 386 computer with a […] video board. The […] video board/[…] software application (Oncor Inc.) converted RGB images to HIS (Hue, Intensity, Saturation) format for display and analysis on a Sony Trinitron Color Video Monitor (Model#PVM-1342Q, Sony Corp, Tokyo, Japan) at a magnification of 305×. […] The […] application then measured only pixels which fell into thresholding limits. The system was calibrated with a micrometer scale (EM Sciences, FT. Washington, Pa. 19034), which allowed data to be expressed in mm^2 or […]m^2.

[1] = tested on: Transforming growth factor beta 1 (TGFβ1); experiment: Assay C: TGFβ1 mRNA by TaqMan RT-PCR; assay type: in vivo, Male Sprague-Dawley rats; conditions: for TGF-β1 mRNA (AU): relative to cyclophilin expression, mean ± SEM, eplerenone dose 100 mg/kg/day; for TGF-β (AU): mRNA, individual rats, incl. rat marked * excluded from statistics
Description: The procedure of Assay B was expanded upon in a further study. […] Myocardial tissue from animals in each treatment group was examined after 7, 14, or 30 days of treatment.
Potassium chloride supplementation was added to the saline solution in order to prevent the potential hypokalemia associated with aldosterone excess.
At the time of the surgery, an Alzet 2002 osmotic minipump (Alza Corp., Palo Alto, Calif.) containing either vehicle (9% ethanol/87% propylene glycol/4% dH2O) or 1.0 mg/mL d-aldosterone (Sigma Chemical, St. Louis, Mo.) was inserted subcutaneously at the nape of the neck. Aldosterone was administered at a dose of 0.75 µg/hour. […] Animals were sacrificed from each group (n=8-13) after 7, 14, or 30 days of treatment.
The fluorogenic 5′-nuclease assay (TaqMan PCR) using Applied Biosystems' 7700 Sequence Detection System (Applied Biosystems, Foster City, Calif.) allowed for real time detection/quantitation of a specific gene by monitoring the increase in fluorescence of a gene-specific, dye-labeled oligonucleotide probe. Probes for target and reference genes were labeled at the 5′-end with a 6-carboxyfluorescein (6FAM) reporter dye and at the 3′-end with a 6-carboxy-N,N,N′,N′-tetramethylrhodamine (TAMRA) quencher dye. When the probe was annealed to the target gene, fluorescence of 6FAM was prevented by the close proximity of TAMRA. The exonuclease activity of Taq polymerase released the dyes from the oligonucleotide probe by displacing the probe from the target sequence resulting in fluorescence excitation in direct proportion to the amount of target message present. Data analysis was performed using the Sequence Detection System software from Applied Biosystems.
Primers and probes were designed using Oligo Primer Analysis Software, Version 5.0 (National Biosciences Inc. (NBI)-Wojciech Rychlik, Cascade, Colo.). Primers were synthesized by Life Technologies (Grand Island, N.Y.) and probes were synthesized by Applied Biosystems. Primer/probe sets were designed from known sequences of rat genes to be analyzed. All target gene values were normalized to a reference gene, constitutively expressed cyclophilin. Primer/probe sets sequences can be found in Table 8
RNA was extracted from frozen (−70° C.) left ventricle (LV) tissue (approximately 10-20 mg) using 1.5 mL RNA-STAT 60 according to manufacturer's instructions (Leedo Medical Laboratories, Inc., Houston, Tex.). Briefly, tissues were homogenized using a tissue homogenizer equipped with a 5 mm probe (Ultra-Turrax T8 Homogenizer, IKA Works, Inc. Wilmington, N.C.). Following homogenization, an equal volume of molecular grade chloroform (Sigma Chemical Co., St. Louis, Mo.) was incubated with periodic mixing for 10 min at room temperature. Samples were centrifuged at 12,000 g for 10 min and RNA was precipitated from the top layer by adding an equal volume of molecular grade isopropanol (Sigma Chemical Co.) followed by an overnight incubation at −80° C. RNA was pelleted by centrifugation at 12,000 g, washed with 75% ethanol, and solubilized in nuclease-free water (Promega, Madison, Wis.).
Double-stranded cDNA was synthesized by adding 400 ng RNA (4 uL) to a final volume of 20 uL containing 15% nuclease-free water (Promega, Madison, Wis.), 1×RT Buffer (Life Technologies, Grand Island, N.Y.), 10 mM DTT (Life Technologies), 0.5 mM each of dATP, dTTP, dGTP, dCTP (PE Biosystems, Foster City, Calif.), 2.5 μM Oligo d(T)15 (Oligo Therapeutics, Inc., Wilsonville, Oreg.), 40 units RNAsin (Promega), and 200 units SuperScript II Reverse Transcriptase (Life Technologies). The reactions were performed in thin-walled reaction tubes with caps (Applied Biosystems) to ensure accurate reaction temperatures.

[2] = group mean, data used for Table 15 (14 days of treatment)
[3] = group mean, data used for Table 16 (30 days of treatment)
[4] = mean ± SEM after 7 days of treatment
[5] = mean ± SEM after 14 days of treatment
[6] = mean ± SEM after 30 days of treatment

Row | Compound | Collagen Volume Fraction (%) (interstitial collagen; [2]) | Collagen Volume Fraction (%) (interstitial collagen; [3]) | Collagen Volume Fraction (%) (interstitial collagen; individual rats, data used for Table 15 (14 days of treatment), incl. rat marked * excluded from statistics, listed as Eplerenone + aldosterone + salt) | Collagen Volume Fraction (%) (interstitial collagen; individual rats, data used for Table 16 (30 days of treatment), incl. rat marked * excluded from statistics, listed as Eplerenone + aldosterone + salt) | ICVF (%) (interstitial collagen; [4]) | ICVF (%) (interstitial collagen; [5]) | ICVF (%) (interstitial collagen; [6]) | TGF-β1 mRNA (AU) ([1]; after 7 days of treatment) | TGF-β1 mRNA (AU) ([1]; after 14 days of treatment) | TGF-β1 mRNA (AU) ([1]; after 30 days of treatment) | TGF-β (AU) ([1]; data used for Table 17 (7-day protocol), listed as Eplerenone + aldosterone + salt) | TGF-β (AU) ([1]; data used for Table 18 (14-day protocol), listed as Eplerenone + aldosterone + salt) | TGF-β (AU) ([1]; data used for Table 19 (30-day protocol), listed as Eplerenone + aldosterone + salt) | Collagen Volume Fraction (%) (interstitial collagen; individual rats, data used for Table 15 (14 days of treatment), incl. rat marked * excluded from statistics, listed as Aldosterone + salt) | Collagen Volume Fraction (%) (interstitial collagen; individual rats, data used for Table 16 (30 days of treatment), incl. rat marked * excluded from statistics, listed as Aldosterone + salt) | TGF-β (AU) ([1]; data used for Table 17 (7-day protocol), listed as Aldosterone + salt) | TGF-β (AU) ([1]; data used for Table 18 (14-day protocol), listed as Aldosterone + salt) | TGF-β (AU) ([1]; data used for Table 19 (30-day protocol), listed as Aldosterone + salt)
1 | COC(=O)[C@@H]1CC2=CC(=O)CC[C@]2(C)[C@@]23O[C@@H]2C[C@@]2(C)[C@@H](CC[C@@]24CCC(=O)O4)[C@H]13 [Eplerenone] | 4.5 | 6.2 | 4.1% and 6.2% and 3.9% and 3.7% (2×) and 4.2% and 3.5% and 3.3% and 5.2% and 5.6% and 6.0% | 3.4% and 5.0% and 6.5% and 7.9% and 7.1% and 6.3% and 6.1% and 5.4% and 7.8% and 4.4% | 5.4 ± 0.6 | 4.5 ± 0.3 | 6.2 ± 0.5 | 0.99 | 1.26 | 1.32 | 0.80 AU (2×) and 0.81 AU and 0.51 AU and 1.31 AU and 1.02 AU and 0.61 AU and 0.84 AU and 1.51 AU and 1.64 AU | 0.58 AU and 0.62 AU and 1.04 AU and 1.42 AU and 1.29 AU and 1.49 AU and 0.71 AU and 1.21 AU and 1.44 AU and 1.69 AU and 2.41 AU | 1.00 AU and 1.49 AU and 1.40 AU and 1.31 AU and 0.96 AU and 1.93 AU and 1.54 AU and 1.32 AU and 0.89 AU and 1.35 AU |  |  |  |  | 
2 | C[C@]12CCC(=O)C=C1CC[C@@H]1[C@@H]2[C@@H](O)C[C@]2(C=O)[C@@H](C(=O)CO)CC[C@@H]12 [Aldosterone] | 5.1 | 7.9 |  |  | 5.6 ± 0.6 | 5.1 ±0.5 | 7.9 ± 1.0 | 1.35 | 1.27 | 1.33 |  |  |  | 4.4% and 5.4% and 3.2% (2×) and 5.9% (2×) and 4.6% (2×) and 3.9% and 4.8% and 3.4% and 6.4% and 9.0% | 6.6% and 8.8% and 7.2% (2×) and 7.1% and 9.3% and 6.8% and 4.0% and 14.5% | 1.23 AU and 0.98 AU and 1.31 AU and 1.89 AU and 1.22 AU and 1.45 AU and 1.47 AU and 1.21 AU and 1.35 AU | 1.26 AU and 1.85 AU and 0.55 AU and 1.91 AU and 1.49 AU and 1.18 AU and 1.32 AU and 1.27 AU and 0.56 AU and 1.29 AU | 1.41 AU and 1.27 AU and 2.11 AU and 1.20 AU and 1.95 AU and 1.49 AU and 0.83 AU and 0.54 AU and 1.21 AU

— patent publication US6716829B2, “Aldosterone antagonist and cyclooxygenase-2 inhibitor combination therapy to prevent or treat inflammation-related cardiovascular disorders” (Pharmacia Corporation, priority 2000, dated 2004)
